Reference: publication PMC7305291, “Cryo-EM snapshots of mycobacterial arabinosyltransferase complex EmbB2-AcpM2” (Protein & Cell, 2020)

Key:
[1] = molecular target: T1, EmbB2-AcpM2 complex (Msm EmbB) (Mycolicibacterium smegmatis, UniProt A0R614); test: microscale thermophoresis (MST); format: binding
T1 construct: gene MSMEG_6389; full-length EmbB, C-terminal 10xHis tag, pMV261 vector, homologous overexpression in M. smegmatis, detergent purified then amphipol exchanged; homodimer with endogenous co-purified AcpM on each protomer; with Meromycolate extension acyl carrier protein
T1 sequence (A0R614 1-1082): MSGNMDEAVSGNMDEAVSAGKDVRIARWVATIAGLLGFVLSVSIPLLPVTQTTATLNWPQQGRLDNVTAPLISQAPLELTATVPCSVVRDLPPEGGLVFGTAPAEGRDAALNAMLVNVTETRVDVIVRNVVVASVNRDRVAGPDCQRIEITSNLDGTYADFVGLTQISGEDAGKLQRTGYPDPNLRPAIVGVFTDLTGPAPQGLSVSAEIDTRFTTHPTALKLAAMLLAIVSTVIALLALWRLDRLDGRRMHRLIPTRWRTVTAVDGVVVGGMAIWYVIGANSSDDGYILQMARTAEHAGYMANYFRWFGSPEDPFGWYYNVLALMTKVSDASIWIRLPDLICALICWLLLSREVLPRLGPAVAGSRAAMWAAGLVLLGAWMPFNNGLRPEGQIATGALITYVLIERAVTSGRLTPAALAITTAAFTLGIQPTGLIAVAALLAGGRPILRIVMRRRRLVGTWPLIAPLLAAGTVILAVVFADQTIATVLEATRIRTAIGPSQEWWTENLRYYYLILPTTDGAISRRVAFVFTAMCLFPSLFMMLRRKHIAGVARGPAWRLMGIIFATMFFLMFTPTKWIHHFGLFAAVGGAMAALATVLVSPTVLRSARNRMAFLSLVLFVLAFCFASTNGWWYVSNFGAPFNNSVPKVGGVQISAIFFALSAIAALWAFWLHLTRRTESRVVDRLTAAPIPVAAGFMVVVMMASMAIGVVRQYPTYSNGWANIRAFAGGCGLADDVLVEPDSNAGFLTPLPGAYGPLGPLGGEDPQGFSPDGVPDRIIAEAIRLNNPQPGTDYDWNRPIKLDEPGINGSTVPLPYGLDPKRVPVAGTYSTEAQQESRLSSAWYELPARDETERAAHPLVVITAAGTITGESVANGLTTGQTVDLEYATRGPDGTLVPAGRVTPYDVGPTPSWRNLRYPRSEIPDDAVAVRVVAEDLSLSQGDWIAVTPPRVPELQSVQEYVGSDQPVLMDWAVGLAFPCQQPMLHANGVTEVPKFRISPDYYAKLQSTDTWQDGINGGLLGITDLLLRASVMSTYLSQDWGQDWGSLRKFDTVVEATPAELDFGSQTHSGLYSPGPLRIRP
T1 sequence (A0R0B3 1-99 partner): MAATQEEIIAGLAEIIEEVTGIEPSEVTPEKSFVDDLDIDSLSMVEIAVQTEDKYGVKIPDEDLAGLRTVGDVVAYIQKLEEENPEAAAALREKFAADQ

[2] = molecular target: T1, EmbB2-AcpM2 complex (Msm EmbB); test: cryo-EM structure of the complex, […] Å; mass spectrometry of co-purified lipid; format: binding; conditions: endogenous donor substrate, bound in one protomer of the asymmetric active state
[3] = molecular target: the molecule itself; test: cryo-EM structure; detergent purified, amphipol exchanged EmbB with co-purified endogenous AcpM; single-particle analysis; two 3D classes refined: symmetric resting state (3.6 A) and asymmetric DPA-bound active state (3.5 A)

CC[C@@H](CO)NCCN[C@@H](CC)CO [ethambutol]
Kd [1]: 1580 nM

CC(C)=CCC/C(C)=C/CC/C(C)=C\CC/C(C)=C\CC/C(C)=C\CC/C(C)=C\CC/C(C)=C\CC/C(C)=C\CC/C(C)=C\CC/C(C)=C\COP(=O)(O)O[C@@H]1O[C@H](CO)[C@@H](O)[C@@H]1O [decaprenyl-phosphate-arabinose]
cryo-EM structure of the complex, 3.5 Å; mass spectrometry of co-purified lipid [2]: The whole of the DPA fits into this part of the map

B1: Mycobacterium smegmatis arabinosyltransferase EmbB (MSMEG_6389) (enzyme, UniProt Q50395 1-1082, looked up)
chain: MSGNMDEAVSGNMDEAVSAGKDVRIARWVATIAGLLGFVLSVSIPLLPVTQTTATLNWPQQGRLDNVTAPLISQAPLELTATVPCSVVRDLPPEGGLVFGTAPAEGRDAALNAMLVNVTETRVDVIVRNVVVASVNRDRVAGPDCQRIEITSNLDGTYADFVGLTQISGEDAGKLQRTGYPDPNLRPAIVGVFTDLTGPAPQGLSVSAEIDTRFTTHPTALKLAAMLLAIVSTVIALLALWRLDRLDGRRMHRLIPTRWRTVTAVDGVVVGGMAIWYVIGANSSDDGYILQMARTAEHAGYMANYFRWFGSPEDPFGWYYNVLALMTKVSDASIWIRLPDLICALICWLLLSREVLPRLGPAVAGSRAAMWAAGLVLLGAWMPFNNGLRPEGQIATGALITYVLIERAVTSGRLTPAALAITTAAFTLGIQPTGLIAVAALLAGGRPILRIVIRRRRLDGTWPLIAPLLAAGTVILAVVFADQTIATVLEATRIRTAIGPSQEWWTEKLRYYYLILPTTDGAISRRVAFVFTAMCLFPSLFMMLRRKHIAGVARGPAWRLMGIIFATMFFLMFTPTKWTHHFGLFAAVGGAMAALATVLVSPTVLRSARNRMAFLSLVLFVLAFCFASTNGWWYVSNFGAPFNNSVPKVGGVQISAIFFALSAIAALWAFWLHLTRRTESRVVDRLTAAPIPVAAGFMVVVMMASMAIGVVRQYPTYSNGWANIRAFAGGCGLADDVLVEPDSNAGFLTPLPGAYGPLGPLGGEDPQGFSPDGVPDRIIAEAIRLNNPQPGTDYDWNRPIKLDEPGINGSTVPLPYGLDPKRVPVAGTYSTEAQQESRLSSAWYELPARDETERAAHPLVVITAAGTITGESVANGLTTGQTVDLEYATRGPDGTLVPAGRVTPYDVGPTPSWRNLRYPRSEIPDDAVAVRVVAEDLSLSQGDWIAVTPPRVPELQSVQEYVGSDQPVLMDWAVGLAFPCQQPMLHANGVTEVPKFRISPDYYAKLQSTDTWQDGINGGLLGITDLLLRASVMSTYLSQDWGQDWGSLRKFDTVVEATPAELDFGSQTHSGLYSPGPLRIRP
notes: arabinosyltransferase EmbB of Mycobacterium smegmatis, locus MSMEG_6389; 69.6% identical to Mtb EmbB (Rv_3795); Seen as a homodimer by cryo-EM, with one AcpM on each protomer (EmbB2-AcpM2); also called Msm EmbB; EmbB protomer
stoichiometry N [3]: 2
